Measured values: patent US5521197A, “3-<1-alkylenearyl>-4-<1,2,3,6-tetrahydropyridinyl>-and 3-<1-alkylenearyl>-4-piperidinyl-1h-indoles: new 5-HT1F agonists” (Eli Lilly and Company, priority 1994, dated 1996)
pKi: −log10 of the molar value. Counter-ions that a name gives are not always drawn. Like-named read-outs stand apart in the source and are kept apart here.

Biological target: T1, 5-HT1F receptor (Homo sapiens, UniProt P30939)
T1 sequence (P30939 1-366): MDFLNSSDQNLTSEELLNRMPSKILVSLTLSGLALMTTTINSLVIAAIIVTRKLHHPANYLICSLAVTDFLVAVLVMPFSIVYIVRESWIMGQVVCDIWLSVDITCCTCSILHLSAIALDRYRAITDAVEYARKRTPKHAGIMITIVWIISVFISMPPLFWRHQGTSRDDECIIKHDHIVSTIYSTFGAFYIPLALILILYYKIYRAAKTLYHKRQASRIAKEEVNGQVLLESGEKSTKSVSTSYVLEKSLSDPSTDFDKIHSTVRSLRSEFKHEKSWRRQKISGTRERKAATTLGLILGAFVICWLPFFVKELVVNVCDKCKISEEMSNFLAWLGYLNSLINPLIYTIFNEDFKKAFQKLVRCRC
Assay: Radioligand ([3H]5-HT) binding to the 5-HT1F receptor subtype
Design: expressed in transfected cells; host or cells: Ltk- cells (membranes)
Conditions: for inhibition at 1 µM: read-out: 5-HT1F BINDING, % displacement at 1000 nM
Procedure: The cells were washed twice with phosphate-buffered saline, scraped from the culture dishes into 5 mL of ice-cold phosphate-buffered saline, and centrifuged at 200×g for 5 minutes at 4° C. The pellet was resuspended in 2.5 mL of ice-cold Tris buffer (20 mM Tris HCl, pH=7.4 at 23° C., 5 mM EDTA) and homogenized with a Wheaton tissue grinder. The lysate was subsequently centrifuged at 200×g for 5 minutes at 4° C. to pellet large fragments which were discarded. The supernatant was collected and centrifuged at 40,000×g for 20 minutes at 4° C. The pellet resulting from this centrifugation was washed once in ice-cold Tris wash buffer and resuspended in a final buffer containing 50 mM Tris HCl and 0.5 mM EDTA, pH=7.4 at 23° C. Membrane preparations were kept on ice and utilized within two hours for the radioligand binding assays.
Saturation studies were conducted using [^3 H]5-HT at 12 different concentrations ranging from 0.5 nM to 100 nM. […] The binding profile of drugs in competition experiments was accomplished using 10-12 concentrations of compound. […] Nonspecific binding was defined in the presence of 10 μM 5-HT. Binding was initiated by the addition of 50 μL membrane homogenates (10-20 μg). The reaction was terminated by rapid filtration through presoaked (0.5% polyethyleneimine) filters using 48R Cell Brandel Harvester (Gaithersburg, Md.). Subsequently, filters were washed for 5 seconds with ice cold buffer (50 mM Tris HCl, pH=7.4 at 4° C.), dried and placed into vials containing 2.5 mL Readi-Safe (Beckman, Fullerton, Calif.) and radioactivity was measured using a Beckman LS 5000TA liquid scintillation counter. […] Binding data was analyzed by computer-assisted nonlinear regression analysis (Accufit and Accucomp, Lunden Software, Chagrin Falls, Ohio). […] All experiments were performed in triplicate. […]

[1] = Table I, [3H]5-HT displacement, transfected Ltk- cell membranes, 37° C., read-out: 5-HT1F BINDING Ki

Row | SMILES | pKi [1] | further results
1 | Fc1cccc(CCN2CCC(c3c[nH]c4ccccc34)CC2)c1 [Example 2, 3-<1-<2-<3-fluorophenyl>ethyl>-4-piperidinyl>-1H-indole hydrochloride] | 7.26 | –
2 | Brc1ccc(CCN2CCC(c3c[nH]c4ccccc34)CC2)cc1 [Example 7, 3-<1-<2-<4-bromophenyl>ethyl>-4-piperidinyl>-1H-indole hydrochloride] | 7.13 | –
3 | Cc1ccc(CCN2CCC(c3c[nH]c4ccccc34)CC2)cc1 [Example 10, 3-<1-<2-<4-methylphenyl>ethyl>-4-piperidinyl>-1H-indole hydrochloride] | 7.17 | –
4 | COc1ccc(CCN2CCC(c3c[nH]c4ccc(OC)cc34)CC2)cc1 [Example 13, 5-methoxy-3-<1-<2-<4-methoxyphenyl>ethyl>-4-piperidinyl>-1H-indole oxalate] | 6.89 | –
5 | CCOc1ccc(CCN2CCC(c3c[nH]c4ccccc34)CC2)cc1 [Example 14, 3-<1-<2-<4-ethoxyphenyl>ethyl>-4-piperidinyl>-1H-indole hydrochloride] | 6.73 | –
6 | c1ccc(COc2ccc(CCN3CCC(c4c[nH]c5ccccc45)CC3)cc2)cc1 [Example 15, 3-<1-<2-<4-benzyloxyphenyl>ethyl>-4-piperidinyl>-1H-indole] | 6.07 | –
7 | FC(F)(F)c1ccccc1CCN1CCC(c2c[nH]c3ccccc23)CC1 [Example 16, 3-<1-<2-<2-trifluoromethylphenyl>ethyl>-4-piperidinyl>-1H-indolehydrochloride] | 7.19 | –
8 | Fc1ccc2[nH]cc(C3=CCN(CCc4ccccc4)CC3)c2c1 [Example 18, 5-fluoro-3-<1-<2-phenylethyl>-4-<1,2,3,6-tetrahydropyridinyl>>-1H-indolehydrochloride] | – | pKi: 7.32
9 | C1=C(c2c[nH]c3ccccc23)CCN(CCc2ccccc2)C1 [Example 19, 3-<1-<2-phenylethyl>-4-<1,2,3,6-tetrahydropyridinyl>>-1H-indole] | – | pKi: 7.09
10 | Clc1ccc2[nH]cc(C3=CCN(CCc4ccccc4)CC3)c2c1 [Example 20, 5-chloro-3-<1-<2-phenylethyl>-4-<1,2,3,6-tetrahydropyridinyl>>-1H-indolehydrochloride] | – | pKi: 7.41
11 | COc1ccc2[nH]cc(C3=CCN(CCc4ccccc4)CC3)c2c1 [Example 21, 5-methoxy-3-<1-<2-phenylethyl>-4-<1,2,3,6-tetrahydropyridinyl>>-1H-indolehydrochloride] | – | pKi: 7.47
12 | C1=C(c2c[nH]c3ccc(OCc4ccccc4)cc23)CCN(CCc2ccccc2)C1 [Example 22, 5-benzyloxy-3-<1-<2-phenylethyl>-4-<1,2,3,6-tetrahydropyridinyl>>-1H-indolehydrochloride] | – | inhibition at 1 µM: 62%
13 | Cc1ccc2[nH]cc(C3=CCN(CCc4ccccc4)CC3)c2c1 [Example 23, 5-methyl-3-<1-<2-phenylethyl>-4-<1,2,3,6-tetrahydropyridinyl>>-1H-indolemaleate] | – | pKi: 7.55
14 | NC(=O)c1ccc2[nH]cc(C3=CCN(CCc4ccccc4)CC3)c2c1 [Example 24, 5-carboxamido-3-<1-<2-phenylethyl>-4-<1,2,3,6-tetrahydropyridinyl>>-1H-indole maleate] | – | pKi: 7.63
15 | COc1ccc(CCN2CCC(c3c[nH]c4ccccc34)CC2)cc1 [Example 33, 3-<1-<2-<4-methoxyphenyl>ethyl>-4-piperidinyl>-1H-indole hydrochloride] | 6.89 | –
16 | C1=C(c2c[nH]c3ccccc23)CCN(CCc2cccc3ccccc23)C1 [Example 34, 3-<1-<2-<1-naphthyl>ethyl>-4-<1,2,3,6-tetrahydropyridinyl>>-1H-indole] | – | inhibition at 1 µM: 38%
17 | c1ccc2c(CCN3CCC(c4c[nH]c5ccccc45)CC3)cccc2c1 [Example 35, 3-<1-<2-<1-naphthyl>ethyl>-4-piperidinyl>-1H-indole] | 7.12 | –
18 | C1=C(c2c[nH]c3ccccc23)CCN(CCOc2ccccc2)C1 [Example 37, 3-<1-<2-phenoxyethyl>-4-<1,2,3,6-tetrahydropyridinyl>>-1H-indolehydrochloride] | 6.38 | –
19 | C1=C(c2c[nH]c3ccccc23)CCN(CCCOc2ccccc2)C1 [Example 38, 3-<1-<3-phenoxypropyl>-4-<1,2,3,6-tetrahydropyridinyl>>-1H-indolehydrochloride] | 6.87 | –

Now from value to compound, other results behind:

Row | pKi [1] | SMILES | further results
20 | 7.53 | Fc1ccccc1CCN1CCC(c2c[nH]c3ccccc23)CC1 [Example 1, 3-<1-<2-<2-fluorophenyl>ethyl>-4-piperidinyl>-1H-indole hydrochloride] | –
21 | 7.51 | Fc1ccc(CCN2CCC(c3c[nH]c4ccccc34)CC2)cc1 [Example 3, 3-<1-<2-<4-fluorophenyl>ethyl>-4-piperidinyl>-1H-indole hydrochloride] | –
22 | 7.45 | COc1ccc2[nH]cc(C3CCN(CCc4ccc(F)cc4)CC3)c2c1 [Example 4, 5-methoxy-3-<1-<2-<4-fluorophenyl>ethyl>-4-piperidinyl>-1H-indolehydrochloride] | –
23 | 7.45 | Clc1ccccc1CCN1CCC(c2c[nH]c3ccccc23)CC1 [Example 5, 3-<1-<2-<2-chlorophenyl>ethyl>-4-piperidinyl>-1H-indole hydrochloride] | –
24 | 7.93 | Clc1cccc(CCN2CCC(c3c[nH]c4ccccc34)CC2)c1 [Example 6, 3-<1-<2-<3-chlorophenyl>ethyl>-4-piperidinyl>-1H-indole hydrochloride] | –
25 | 7.35 | Cc1ccccc1CCN1CCC(c2c[nH]c3ccccc23)CC1 [Example 8, 3-<1-<2-<2-methylphenyl>ethyl>-4-piperidinyl>-1H-indole hydrochloride] | –
26 | 7.53 | Cc1cccc(CCN2CCC(c3c[nH]c4ccccc34)CC2)c1 [Example 9, 3-<1-<2-<3-methylphenyl>ethyl>-4-piperidinyl>-1H-indole hydrochloride] | –
27 | 7.47 | COc1ccccc1CCN1CCC(c2c[nH]c3ccccc23)CC1 [Example 11, 3-<1-<2-<2-methoxyphenyl>ethyl>-4-piperidinyl>-1H -indole hydrochloride] | –
28 | 7.68 | COc1cccc(CCN2CCC(c3c[nH]c4ccccc34)CC2)c1 [Example 12, 3-<1-<2-<3-methoxyphenyl>ethyl>-4-piperidinyl>-1H-indole hydrochloride] | –
29 | 7.79 | FC(F)(F)c1cccc(CCN2CCC(c3c[nH]c4ccccc34)CC2)c1 [Example 17, 3-<1-<2-<3-trifluoromethylphenyl>ethyl>-4-piperidinyl>-1H -indole] | –
30 | 7.53 | Fc1ccc2[nH]cc(C3CCN(CCc4ccccc4)CC3)c2c1 [Example 25, 5-fluoro-3-<1-<2-phenylethyl>-4-piperidinyl>-1H-indole hydrochloride] | –
31 | 7.28 | c1ccc(CCN2CCC(c3c[nH]c4ccccc34)CC2)cc1 [Example 26, 3-<1-<2-phenylethyl>-4-piperidinyl>-1H-indole] | –
32 | 7.34 | Clc1ccc2[nH]cc(C3CCN(CCc4ccccc4)CC3)c2c1 [Example 27, 5-chloro-3-<1-<2-phenylethyl>-4-piperidinyl>-1H-indole hydrochloride] | –
33 | 7.41 | COc1ccc2[nH]cc(C3CCN(CCc4ccccc4)CC3)c2c1 [Example 28, 5-methoxy-3-<1-<2-phenylethyl>-4-piperidinyl>-1H-indole hydrochloride] | –
34 | 7.76 | c1ccc(CCN2CCC(c3c[nH]c4ccc(OCc5ccccc5)cc34)CC2)cc1 [Example 29, 5-benzyloxy-3-<1-<2-phenylethyl>-4-piperidinyl>-1H-indole hydrochloride] | –
35 | 7.42 | Cc1ccc2[nH]cc(C3CCN(CCc4ccccc4)CC3)c2c1 [Example 30, 5-methyl-3-<1-<2-phenylethyl>-4-piperidinyl>-1H -indole hydrochloride] | –
36 | 7.43 | NC(=O)c1ccc2[nH]cc(C3CCN(CCc4ccccc4)CC3)c2c1 [Example 31, 5-carboxamido-3-<1-<2-phenylethyl>-4-piperidinyl>-1H-indole hydrochloride] | –
37 | 7.28 | Clc1ccc(CCN2CCC(c3c[nH]c4ccccc34)CC2)cc1 [Example 32, 3-<1-<2-<4-chlorophenyl>ethyl>-4-piperidinyl>-1H-indole hydrochloride] | –
38 | 8.60 | Oc1ccc2[nH]cc(C3CCN(CCc4ccccc4)CC3)c2c1 [Example 36, 5-hydroxy-3-<1-<2-phenylethyl>-4-piperidinyl>-1H-indole hydrochloride] | –
